How the values were obtained:
Assay in all cases: GRmax, 72 h; higher = less effect;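 also: breast cell lines in 384-well plates, nine doses across a 10^4 range, Dye Drop imaging of viable cells vs DMSO and time-zero plates, GR 0 means no net growth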
184A1 = tested on: 184A1
CAMA1 = tested on: CAMA1
HCC1569 = tested on: HCC1569
HCC38 = tested on: HCC38
MCF10A = tested on: MCF10A
MDAMB330 = tested on: MDAMB330
MDAMB436 = tested on: MDAMB436
MDAMB468 = tested on: MDAMB468
PDX1328 = tested on: PDX1328
SUM149 = tested on: SUM149
SUM159 = tested on: SUM159
ZR7530 = tested on: ZR7530

SMILES | GRmax, 72 h (184A1) | GRmax, 72 h (CAMA1) | GRmax, 72 h (HCC1569) | GRmax, 72 h (HCC38) | GRmax, 72 h (MCF10A) | GRmax, 72 h (MDAMB330) | GRmax, 72 h (MDAMB436) | GRmax, 72 h (MDAMB468) | GRmax, 72 h (PDX1328) | GRmax, 72 h (SUM149) | GRmax, 72 h (SUM159) | GRmax, 72 h (ZR7530)
Cc1nc(-c2cn3c(n2)-c2ccc(-c4cnn(C(C)(C)C(N)=O)c4)cc2OCC3)n(C(C)C)n1 [Taselisib/GDC0032] (max 10 µM) | 0.0652 GR | -0.152 GR | -0.121 GR | 0.0628 GR | 0.0593 GR | -0.924 GR | 0.243 GR | 0.0046 GR | -0.0629 GR | -0.224 GR | 0.187 GR | -0.478 GR
O=C1NC(=O)[C@@H](c2cn3c4c(cccc24)CCC3)[C@@H]1c1c[nH]c2ccccc12 [Tivantinib/ARQ197] (max 10 µM) | -0.121 GR | -0.566 GR | -0.11 GR | -0.27 GR | -0.15 GR | -0.321 GR | -0.271 GR | -0.455 GR | -0.479 GR | -0.224 GR | -0.281 GR | -0.539 GR
Nc1ccc(-c2ccc3ncc4ccc(=O)n(-c5cccc(C(F)(F)F)c5)c4c3c2)cn1 [Torin2] (max 1 µM) | 0.0958 GR | -0.147 GR | -0.0827 GR | -0.211 GR | 0.128 GR | -0.84 GR | 0.123 GR | -0.0415 GR | -0.249 GR | 0.0058 GR | 0.172 GR | -0.0202 GR
CC[C@@H]1C(=O)N(C)c2cnc(Nc3ccc(C(=O)N[C@H]4CC[C@H](N5CCN(CC6CC6)CC5)CC4)cc3OC)nc2N1C(C)C [Volasertib/BI6727] (max 1 µM) | -0.13 GR | -0.296 GR | 0.0147 GR | -0.26 GR | -0.0887 GR | -0.261 GR | -0.179 GR | -0.449 GR | -0.529 GR | -0.297 GR | 0.0326 GR | -0.42 GR
O=C(CCCCCCC(=O)Nc1ccccc1)NO [Vorinostat] (max 10 µM) | -0.0468 GR | -0.49 GR | -0.294 GR | -0.285 GR | 0.0566 GR | -0.872 GR | 0.033 GR | -0.119 GR | -0.285 GR | -0.0704 GR | 0.181 GR | -0.318 GR
C=CC(=O)Nc1ccc(C(=O)Nc2[nH]nc3c2CN(C(=O)N[C@H](CN(C)C)c2ccccc2)C3(C)C)cc1 [YKL-5-124] (max 10 µM) | -0.0615 GR | -0.604 GR | -0.164 GR | -0.39 GR | -0.162 GR | -0.765 GR | -0.0111 GR | -0.493 GR | 0.177 GR | -0.104 GR | -0.137 GR | -0.625 GR
CN1CCN(C(=O)c2ccc3cc(CCNc4ncnc5ccc(C#N)cc45)ccc3c2)CC1 [senexin b] (max 10 µM) | 0.809 GR | 0.229 GR | 0.514 GR | 0.614 GR | 0.851 GR | 0.466 GR | 0.429 GR | 0.132 GR | 1.02 GR | 0.747 GR | 0.881 GR | 0.0824 GR
